From patent US10093671B2, “2-oxo-6,7-dihydrobenzo[a]quinolizine-3-carboxylic acid derivatives for the treatment and prophylaxis of hepatitis B virus infection” (Hoffmann-La Roche Inc., priority 2015, dated 2018)
Where a name gives a salt, the structure may show the parent alone.

test system: HBV DNA; assay: HBV DNA assay (real-time qPCR of extracellular HBV DNA copy number, HepG2.2.15 cells); format: cell-based; conditions: Hepatitis B virus, 144 h, six days, extracellular HBV DNA by qPCR, read-out: IC50 (Anti HBV DNA production activity)
Description: The assay employs real-time qPCR (TaqMan) to directly measure extracellular HBV DNA copy number. HepG2.2.15 cells were plated in 96-well microtiter plates. Only the interior wells were utilized to reduce “edge effects” observed during cell culture, the exterior wells were filled with complete medium to help minimize sample evaporation. On the following day, the HepG2.2.15 cells were washed and the medium was replaced with complete medium containing various concentrations of a test compound in triplicate. 3TC was used as the positive control, while media alone was added to cells as a negative control (virus control, VC). Three days later, the culture medium was replaced with fresh medium containing the appropriately diluted drug. Six days following the initial administration of the test compound, the cell culture supernatant was collected, treated with pronase and then used in a real-time qPCR/TaqMan assay to determine HBV DNA copy numbers. Antiviral activity was calculated from the reduction in HBV DNA levels (IC50).

`COCCCOc1cc2c(cc1OC)-c1cc(=O)c(C(=O)O)cn1C(c1cc(C)cs1)C2` (centres unmarked) [Example 7, 10-methoxy-9-(3-methoxypropoxy)-6-(4-methyl-2-thienyl)-2-oxo-6,7-dihydrobenzo[a]quinolizine-3-carboxylic Acid] and `COc1cc2c(cc1OCC1CC1)CC(c1cccs1)n1cc(C(=O)O)c(=O)cc1-2` (centres unmarked) [Example 15, 9-(cyclopropylmethoxy)-10-methoxy-2-oxo-6-(2-thienyl)-6,7-dihydrobenzo[a]quinolizine-3-carboxylic Acid] cannot be ordered by IC50: < 32 nM for the first, < 32 nM for the second.

test system: HBsAg; assay: microbe, parasite or virus in culture; conditions: Hepatitis B virus, HepG2.2.15, read-out: IC50 (HBsAg secretion reduced by 50% compared to the no drug control)
Description: HepG2.2.15 cells (Acs et al. Proc Natl Acad Sci USA, 84, (1987), 4641-4), a constitutively HBV-expressing cell line were cultured in DMEM+Glutamax-I medium (Invitrogen, Carlsbad, Calif., USA), supplemented with 10% fetal bovine serum (Invitrogen) and G418 (Invitrogen) at a final concentration of 200 mg/L and maintained in 5% CO2 at 37° C.
HepG2.2.15 cells were seeded in duplicate into white, 96-well plates at 1.5×10^4 cells/well. The cells were treated with a three-fold serial dilution series of the compounds in DMSO. The final DMSO concentration in all wells was 1% and DMSO was used as no drug control.
The HBsAg chemiluminescence immunoassay (CLIA) kit (Autobio Diagnostics Co., Zhengzhou, China, Catalog number: CL0310-2) was used to measure the levels of secreted HBV antigens semi-quantitatively. For the detection 50 μL/well culture supernatant was used and HBsAg was quantified using HBsAg chemiluminescence immunoassay (CLIA) kit (Autobio Diagnostics Co., Zhengzhou, China, Catalog number: CL0310-2), 50 μL of the supernatant was transferred to the CLIA assay plate and 50 μL of enzyme conjugate reagent was added into each well. The plates were sealed and gently agitated for 1 hour at room temperature. The supernatant-enzyme-mixture was discarded and wells were washed 6 times with 300 μL of PBS. The residual liquid was removed by plating the CLIA plate right side down on absorbent tissue paper. 25 μL of substrates A and B were added to each well. Luminance was measured using a luminometer (Mithras LB 940 Multimode Microplate Reader) after 10 minutes incubation. Dose-response curves were generated and the IC50 value was extrapolated by using the E-WorkBook Suite (ID Business Solutions Ltd., Guildford, UK). The IC50 was defined as the compound concentration (or conditioned media log dilution) at which HBsAg secretion was reduced by 50% compared to the no drug control.

Compared with `COCCCOc1cc2c(cc1OC)-c1cc(=O)c(C(=O)O)cn1C(c1ccc(O)cc1)C2` (centres unmarked) [Example 4, 6-(4-hydroxyphenyl)-10-methoxy-9-(3-methoxypropoxy)-2-oxo-6,7-dihydrobenzo[a]quinolizine-3-carboxylic Acid], `COCCCOc1cc2c(cc1OC)-c1cc(=O)c(C(=O)O)cn1C(c1ccc(F)cc1)C2` (centres unmarked) [Example 9, 6-(4-fluorophenyl)-10-methoxy-9-(3-methoxypropoxy)-2-oxo-6,7-dihydrobenzo[a]quinolizine-3-carboxylic Acid] is 14-fold lower in IC50: 1160 nM for the first, 83 nM for the second. The second is the more potent here.

Going from `COCCCOc1cc2c(cc1OC)-c1cc(=O)c(C(=O)O)cn1C(c1ccc(OC)cc1)C2` (centres unmarked) [Example 5, 10-methoxy-6-(4-methoxyphenyl)-9-(3-methoxypropoxy)-2-oxo-6,7-dihydrobenzo[a]quinolizine-3-carboxylic Acid] to `COCCCOc1cc2c(cc1OC)-c1cc(=O)c(C(=O)O)cn1C(c1ccc(OCc3ccccc3)cc1)C2` (centres unmarked) [Example 6, 6-(4-benzyloxyphenyl)-10-methoxy-9-(3-methoxypropoxy)-2-oxo-6,7-dihydrobenzo[a]quinolizine-3-carboxylic Acid], the IC50 rises from 800 nM to 1930 nM (2.4-fold). The first is the more potent here.

`COCCCOc1cc2c(cc1OC)-c1cc(=O)c(C(=O)O)cn1C(c1cc(C)cs1)C2` (centres unmarked) [Example 7, 10-methoxy-9-(3-methoxypropoxy)-6-(4-methyl-2-thienyl)-2-oxo-6,7-dihydrobenzo[a]quinolizine-3-carboxylic Acid] and `COCCCOc1cc2c(cc1OC)-c1cc(=O)c(C(=O)O)cn1C(c1ccccc1C)C2` (centres unmarked) [Example 10, 10-methoxy-9-(3-methoxypropoxy)-6-(o-tolyl)-2-oxo-6,7-dihydrobenzo[a]quinolizine-3-carboxylic Acid] are within 1.5-fold of each other in IC50: 9 nM for the first, 10 nM for the second.

Going from `COc1ccc2c(c1C)CC(c1cccs1)n1cc(C(=O)O)c(=O)cc1-2` (centres unmarked) [Example 11, 9-methoxy-8-methyl-2-oxo-6-(2-thienyl)-6,7-dihydrobenzo[a]quinolizine-3-carboxylic Acid] to `COc1cc2c(cc1C)CC(c1cccs1)n1cc(C(=O)O)c(=O)cc1-2` (centres unmarked) [Example 33, 10-methoxy-9-methyl-2-oxo-6-(2-thienyl)-6,7-dihydrobenzo[a]quinolizine-3-carboxylic Acid], the IC50 falls from 170 nM to 35 nM (4.9-fold). The second is the more potent here.

First: COc1cc2c(cc1OCc1ccccc1)CC(c1cccs1)n1cc(C(=O)O)c(=O)cc1-2 (centres unmarked) [Example 12, 9-benzyloxy-10-methoxy-2-oxo-6-(2-thienyl)-6,7-dihydrobenzo[a]quinolizine-3-carboxylic Acid]
Second: COc1cc2c(cc1OCCCO)CC(c1cccs1)n1cc(C(=O)O)c(=O)cc1-2 (centres unmarked) [Example 17, 9-(3-hydroxypropoxy)-10-methoxy-2-oxo-6-(2-thienyl)-6,7-dihydrobenzo[a]quinolizine-3-carboxylic Acid]
The IC50 of the first is 3.6-fold lower: 5 nM for the first, 18 nM for the second. The first is the more potent here.

Compared with `COc1cc2c(cc1OC)-c1cc(=O)c(C(=O)O)cn1C(c1cccs1)C2` (centres unmarked) [Example 13, 9,10-dimethoxy-2-oxo-6-(2-thienyl)-6,7-dihydrobenzo[a]quinolizine-3-carboxylic Acid], `COc1cc2c(cc1OCC(C)C)CC(c1cccs1)n1cc(C(=O)O)c(=O)cc1-2` (centres unmarked) [Example 14, 9-isobutoxy-10-methoxy-2-oxo-6-(2-thienyl)-6,7-dihydrobenzo[a]quinolizine-3-carboxylic Acid] is 3-fold lower in IC50: 6 nM for the first, 2 nM for the second.

Going from `COc1cc2c(cc1OCC1CC1)CC(c1cccs1)n1cc(C(=O)O)c(=O)cc1-2` (centres unmarked) [Example 15, 9-(cyclopropylmethoxy)-10-methoxy-2-oxo-6-(2-thienyl)-6,7-dihydrobenzo[a]quinolizine-3-carboxylic Acid] to `COc1cc2c(cc1OCC(F)(F)F)CC(c1cccs1)n1cc(C(=O)O)c(=O)cc1-2` (centres unmarked) [Example 27, 10-methoxy-2-oxo-6-(2-thienyl)-9-(2,2,2-trifluoroethoxy)-6,7-dihydrobenzo[a]quinolizine-3-carboxylic Acid], the IC50 rises from 2 nM to 3 nM (1.5-fold).

Going from `COc1cc2c(cc1OCCCn1cccn1)CC(c1cccs1)n1cc(C(=O)O)c(=O)cc1-2` (centres unmarked) [Example 16, 10-methoxy-2-oxo-9-(3-pyrazol-1-ylpropoxy)-6-(2-thienyl)-6,7-dihydrobenzo[a]quinolizine-3-carboxylic Acid] to `COc1cc2c(cc1OCCCn1cncn1)CC(c1cccs1)n1cc(C(=O)O)c(=O)cc1-2` (centres unmarked) [Example 29, 10-methoxy-2-oxo-6-(2-thienyl)-9-[3-(1,2,4-triazol-1-yl)propoxy]-6,7-dihydrobenzo[a]quinolizine-3-carboxylic Acid], the IC50 rises from 9 nM to 64 nM (7.1-fold). The first is the more potent here.

Going from `COc1cc2c(cc1OCCCN1CCCCC1)CC(c1cccs1)n1cc(C(=O)O)c(=O)cc1-2` (centres unmarked) [Example 18, 10-methoxy-2-oxo-9-[3-(1-piperidyl)propoxy]-6-(2-thienyl)-6,7-dihydrobenzo[a]quinolizine-3-carboxylic Acid Formate] to `COc1cc2c(cc1OCCCN1CCOCC1)CC(c1cccs1)n1cc(C(=O)O)c(=O)cc1-2` (centres unmarked) [Example 28, 10-methoxy-9-(3-morpholinopropoxy)-2-oxo-6-(2-thienyl)-6,7-dihydrobenzo[a]quinolizine-3-carboxylate], the IC50 falls from 97 nM to 10 nM (9.7-fold).

`COc1cc2c(cc1OCCCC#N)CC(c1cccs1)n1cc(C(=O)O)c(=O)cc1-2` (centres unmarked) [Example 19, 9-(3-cyanopropoxy)-10-methoxy-2-oxo-6-(2-thienyl)-6,7-dihydrobenzo[a]quinolizine-3-carboxylic Acid] and `COc1cc2c(cc1OCCCSC)CC(c1cccs1)n1cc(C(=O)O)c(=O)cc1-2` (centres unmarked) [Example 31, 10-methoxy-9-(3-methylsulfanylpropoxy)-2-oxo-6-(2-thienyl)-6,7-dihydrobenzo[a]quinolizine-3-carboxylic Acid] are within 1.5-fold of each other in IC50: 5 nM for the first, 4 nM for the second.

First: COc1cc2c(cc1OCCN1CCCC1=O)CC(c1cccs1)n1cc(C(=O)O)c(=O)cc1-2 (centres unmarked) [Example 20, 10-methoxy-2-oxo-9-[2-(2-oxopyrrolidin-1-yl)ethoxy]-6-(2-thienyl)-6,7-dihydrobenzo[a]quinolizine-3-carboxylic Acid]
Second: COc1cc2c(cc1OCCCS(C)(=O)=O)CC(c1cccs1)n1cc(C(=O)O)c(=O)cc1-2 (centres unmarked) [Example 32, 10-methoxy-9-(3-methylsulfonylpropoxy)-2-oxo-6-(2-thienyl)-6,7-dihydrobenzo[a]quinolizine-3-carboxylic Acid]
The IC50 of the first is 3-fold lower: 37 nM for the first, 110 nM for the second.

First: COc1cc2c(cc1OCCCCCCNC(=O)OC(C)(C)C)CC(c1cccs1)n1cc(C(=O)O)c(=O)cc1-2 (centres unmarked) [Example 21, 9-[6-(tert-butoxycarbonylamino)hexoxy]-10-methoxy-2-oxo-6-(2-thienyl)-6,7-dihydrobenzo[a]quinolizine-3-carboxylic Acid]
Second: COc1cc2c(cc1OCCCCCCNC(C)=O)CC(c1cccs1)n1cc(C(=O)O)c(=O)cc1-2 (centres unmarked) [Example 23, 9-(6-acetamidohexoxy)-10-methoxy-2-oxo-6-(2-thienyl)-6,7-dihydrobenzo[a]quinolizine-3-carboxylic Acid]
The IC50 of the first is 3-fold lower: 6 nM for the first, 18 nM for the second. The first is the more potent here.

Going from `COc1cc2c(cc1OCCCCCCN)CC(c1cccs1)n1cc(C(=O)O)c(=O)cc1-2` (centres unmarked) [Example 22, 9-(6-aminohexoxy)-10-methoxy-2-oxo-6-(2-thienyl)-6,7-dihydrobenzo[a]quinolizine-3-carboxylic Acid Formate] to `COc1cc2c(cc1OCCCCCCO)CC(c1cccs1)n1cc(C(=O)O)c(=O)cc1-2` (centres unmarked) [Example 25, 9-(6-hydroxyhexoxy)-10-methoxy-2-oxo-6-(2-thienyl)-6,7-dihydrobenzo[a]quinolizine-3-carboxylic Acid], the IC50 falls from 21 nM to 3 nM (7-fold). The second is the more potent here.

Compared with `COc1cc2c(cc1OCCCCCCNS(C)(=O)=O)CC(c1cccs1)n1cc(C(=O)O)c(=O)cc1-2` (centres unmarked) [Example 24, 9-[6-(methanesulfonamido)hexoxy]-10-methoxy-2-oxo-6-(2-thienyl)-6,7-dihydrobenzo[a]quinolizine-3-carboxylic Acid], `COc1cc2c(cc1OCCCC(=O)O)CC(c1cccs1)n1cc(C(=O)O)c(=O)cc1-2` (centres unmarked) [Example 30, 9-(3-carboxypropoxy)-10-methoxy-2-oxo-6-(2-thienyl)-6,7-dihydrobenzo[a]quinolizine-3-carboxylic Acid] is 32-fold higher in IC50: 10 nM for the first, 320 nM for the second.

Compared with `COc1cc2c(cc1OCC(C)(C)CO)CC(c1cccs1)n1cc(C(=O)O)c(=O)cc1-2` (centres unmarked) [Example 26, 9-(3-hydroxy-2,2-dimethyl-propoxy)-10-methoxy-2-oxo-6-(2-thienyl)-6,7-dihydrobenzo[a]quinolizine-3-carboxylic Acid], `CCc1cc2c(cc1OC)-c1cc(=O)c(C(=O)O)cn1C(c1cccs1)C2` (centres unmarked) [Example 34, 9-ethyl-10-methoxy-2-oxo-6-(2-thienyl)-6,7-dihydrobenzo[a]quinolizine-3-carboxylic Acid] is 6-fold higher in IC50: 4 nM for the first, 24 nM for the second. The first is the more potent here.

Going from `CCCc1cc2c(cc1OC)-c1cc(=O)c(C(=O)O)cn1C(c1cccs1)C2` (centres unmarked) [Example 35, 10-methoxy-2-oxo-9-propyl-6-(2-thienyl)-6,7-dihydrobenzo[a]quinolizine-3-carboxylic Acid] to `COc1cc2c(cc1N1CCCC1)CC(c1cccs1)n1cc(C(=O)O)c(=O)cc1-2` (centres unmarked) [Example 36, 10-methoxy-2-oxo-9-pyrrolidin-1-yl-6-(2-thienyl)-6,7-dihydrobenzo[a]quinolizine-3-carboxylic Acid], the IC50 falls from 22 nM to 3 nM (7.3-fold).

For `COCCCOc1cc2c(cc1Cl)-c1cc(=O)c(C(=O)O)cn1C(c1cc3ccccc3s1)C2` (centres unmarked) [Example 37, 6-(benzothiophen-2-yl)-10-chloro-9-(3-methoxypropoxy)-2-oxo-6,7-dihydrobenzo[a]quinolizine-3-carboxylic Acid], the IC50 was 4420 nM.
